Assay results: patent publication US20250382322A1, “DIAGNOSTICS FOR DETECTING ECTO-5'-NUCLEOTIDASE (CD73)” (EBERHARD KARLS UNIVERSITÄT TÜBINGEN, priority 2022, published 2025)

Biological target: T1, human NTPDase3 (Homo sapiens, UniProt O75355)
T1 sequence (O75355 1-529): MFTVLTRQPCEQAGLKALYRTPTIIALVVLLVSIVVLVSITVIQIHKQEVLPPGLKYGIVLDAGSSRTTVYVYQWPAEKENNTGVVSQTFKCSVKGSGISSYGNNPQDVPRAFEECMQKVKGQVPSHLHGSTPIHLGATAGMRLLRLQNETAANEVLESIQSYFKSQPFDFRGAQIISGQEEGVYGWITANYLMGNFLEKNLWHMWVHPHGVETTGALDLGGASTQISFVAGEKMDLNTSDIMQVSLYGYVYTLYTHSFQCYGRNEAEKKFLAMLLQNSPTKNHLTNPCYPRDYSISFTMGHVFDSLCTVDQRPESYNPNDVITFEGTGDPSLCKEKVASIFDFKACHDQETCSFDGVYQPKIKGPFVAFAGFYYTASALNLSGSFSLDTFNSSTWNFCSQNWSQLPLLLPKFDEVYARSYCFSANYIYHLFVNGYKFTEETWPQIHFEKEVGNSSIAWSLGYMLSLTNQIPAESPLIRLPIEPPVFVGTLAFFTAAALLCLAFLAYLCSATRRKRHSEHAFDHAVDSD
Test: Capillary electrophoresis assay for human NTPDase3
Assay type: biochemical
Details: ATP (100 μM) as substrate
Method: Inhibitory activity of the CD73 inhibitors 2 and 20 at human NTPDases 1, 2, 3, and 8 was investigated using ATP (100 μM) as a substrate according to previously published procedures.^24 ATP and 2 were co-incubated with recombinantly expressed human NTPDases at 37° C. for 30 min, and the enzymatic reaction was terminated by heating at 90° C. for 10 min. The amount of enzyme preparation was adjusted to ensure 10-20% of substrate conversion. The formed products were separated by capillary electrophoresis (CE) and individually quantitated by diode array detection (DAD) at a wavelength of 260 nm. For inhibition analysis, at least three independent experiments were performed each in triplicate. The inhibition of the enzyme activity was calculated in relation to the positive control without inhibitor and plotted by GraphPad Prism 8 software (GraphPad software, San Diego, CA, USA) (for results see Table 2 and Table 3).
Test compounds were investigated at a concentration of 50 μM, and 100 μM ATP substrate according to published procedures.^24 Recombinantly expressed human NTPDases were employed. The amount of enzyme preparation was adjusted to ensure 10-20% of substrate conversion. […] The inhibition of the enzyme activity was calculated in relation to the positive control without inhibitor and plotted in GraphPad Prism 8 software (GraphPad software, San Diego, CA, USA). […]

IC50 [µM]	Compound
> 50	CCCN(Cc1ccc(-c2cn(CCF)nn2)cc1)c1nc(Cl)nc2c1ncn2[C@@H]1O[C@H](COP(=O)(O)CP(=O)(O)O)C(O)C1O (some centres unmarked) [Compound 2]
27.7	O=C(NCCCCCCNC(=O)c1ccc2c(c1)C1(OC2=O)c2ccc(O)cc2Oc2cc(O)ccc21)c1ccc(CNc2nc(Cl)nc3c2ncn3[C@@H]2O[C@H](COP(=O)(O)CP(=O)(O)O)[C@@H](O)[C@H]2O)cc1 [Compound 20, (((((2R,3S,4R,5R)-5-(2-chloro-6-((4-((6-(3′,6′-dihydroxy-3-oxo-3H-spiro[isobenzofuran-1,9′-xanthene]-6-carboxamido)-hexyl)carbamoyl)benzyl)amino)-9H-purin-9-yl)-3,4-dihydroxytetrahydrofuran-2-yl)methoxy)(hydroxy)phosphoryl)methyl)phosphonic acid]
